Test results reported in US10485235B2, “Aryloxypyrimidinyl ethers as herbicides” (FMC Corporation, priority 2015, dated 2019).

Columns and labels:
Assay type in all cases: in vivo
[1] = test system: ryegrass, Italian (Italian ryegrass, Lolium multiflorum); experiment: Test A postemergence, Italian ryegrass; conditions: postemergence, 0 to 100 scale, 0 is no effect, 100 is complete control, approximately 10 days
Procedure, shortened: (§1)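 Scores (0 no effect to 100 complete control) come from visual comparison of treated and untreated plants kept about 10 days in a greenhouse. Growth medium was a loam/sand blend; preemergence treatment was a directed soil spray, postemergence treatment went onto plants at the 1–2 leaf stage.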

kochia (Kochia scoparia) [2] = experiment: Test A postemergence, kochia; conditions: postemergence, 0 to 100 scale, 0 is no effect, 100 is complete control, approximately 10 days
Procedure, shortened: as §1

corn (Zea mays) = experiment: Test A postemergence, corn; conditions: postemergence, 0 to 100 scale, 0 is no effect, 100 is complete control, approximately 10 days
Procedure, shortened: as §1

[3] = test system: sedge, umbrella (small-flower umbrella sedge, Cyperus difformis); experiment: Test B flooded paddy test, umbrella sedge; conditions: 250 g ai/ha, Flood; visual rating after 13 to 15 days; scale 0 to 100, 0 is no effect, 100 is complete control
Procedure, shortened: (§2)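 Plants grown to 2-leaf stage, pots flooded to 3 cm above soil and compound applied directly to paddy water, depth maintained throughout. After 13-15 days in greenhouse, visual rating against untreated controls on 0-100 scale (0 no effect, 100 complete control).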

[4] = test system: galium (catchweed bedstraw, Galium aparine); experiment: Test A postemergence, galium; conditions: postemergence, 0 to 100 scale, 0 is no effect, 100 is complete control, approximately 10 days
Procedure, shortened: as §1

[5] = test system: ragweed (common ragweed, Ambrosia elatior); experiment: Test A postemergence, ragweed; conditions: postemergence, 0 to 100 scale, 0 is no effect, 100 is complete control, approximately 10 days
Procedure, shortened: as §1

kochia (Kochia scoparia) [6] = experiment: Test A preemergence, kochia; conditions: Preemergence, 0 to 100 scale (0 no effect, 100 complete control)
Procedure, shortened: as §1

[7] = test system: ryegrass, Italian (Italian ryegrass, Lolium multiflorum); experiment: Test A preemergence, Italian ryegrass; conditions: Preemergence, 0 to 100 scale (0 no effect, 100 complete control)
Procedure, shortened: as §1

[8] = test system: foxtail, giant (giant foxtail, Setaria faberii); experiment: Test A postemergence, giant foxtail; conditions: postemergence, 0 to 100 scale, 0 is no effect, 100 is complete control, approximately 10 days
Procedure, shortened: as §1

[9] = test system: pigweed (Amaranthus retroflexus); experiment: Test A preemergence, pigweed; conditions: Preemergence, 0 to 100 scale (0 no effect, 100 complete control)
Procedure, shortened: as §1

[10] = test system: ragweed (common ragweed, Ambrosia elatior); experiment: Test A preemergence, ragweed; conditions: Preemergence, 0 to 100 scale (0 no effect, 100 complete control)
Procedure, shortened: as §1

[11] = test system: pigweed (Amaranthus retroflexus); experiment: Test A postemergence, pigweed; conditions: postemergence, 0 to 100 scale, 0 is no effect, 100 is complete control, approximately 10 days
Procedure, shortened: as §1

[12] = test system: foxtail, giant (giant foxtail, Setaria faberii); experiment: Test A preemergence, giant foxtail; conditions: Preemergence, 0 to 100 scale (0 no effect, 100 complete control)
Procedure, shortened: as §1

[13] = test system: wheat (Triticum aestivum); experiment: Test A postemergence, wheat; conditions: postemergence, 0 to 100 scale, 0 is no effect, 100 is complete control, approximately 10 days
Procedure, shortened: as §1

[14] = test system: barnyardgrass (Echinochloa crus-galli); experiment: Test A postemergence, barnyardgrass; conditions: postemergence, 0 to 100 scale, 0 is no effect, 100 is complete control, approximately 10 days
Procedure, shortened: as §1

[15] = test system: blackgrass (Alopecurus myosuroides); experiment: Test A postemergence, blackgrass; conditions: postemergence, 0 to 100 scale, 0 is no effect, 100 is complete control, approximately 10 days
Procedure, shortened: as §1

[16] = test system: ducksalad (Heteranthera limosa); experiment: Test B flooded paddy test, ducksalad; conditions: 250 g ai/ha, Flood; visual rating after 13 to 15 days; scale 0 to 100, 0 is no effect, 100 is complete control
Procedure, shortened: as §2

rice (Oryza sativa) = experiment: Test B flooded paddy test, rice; conditions: 250 g ai/ha, Flood; visual rating after 13 to 15 days; scale 0 to 100, 0 is no effect, 100 is complete control
Procedure, shortened: as §2

[17] = test system: barnyardgrass (Echinochloa crus-galli); experiment: Test B flooded paddy test, barnyardgrass; conditions: 250 g ai/ha, Flood; visual rating after 13 to 15 days; scale 0 to 100, 0 is no effect, 100 is complete control
Procedure, shortened: as §2

[18] = test system: barnyardgrass (Echinochloa crus-galli); experiment: Test A preemergence, barnyardgrass; conditions: Preemergence, 0 to 100 scale (0 no effect, 100 complete control)
Procedure, shortened: as §1

Structure (SMILES) | Plant response rating, Ryegrass, Italian ([1]; 31 g ai/ha) | Plant response rating, Ryegrass, Italian ([1]; 125 g ai/ha) | Plant response rating, Kochia (kochia (Kochia scoparia) [2]; 31 g ai/ha) | Plant response rating, Kochia (kochia (Kochia scoparia) [2]; 125 g ai/ha) | Plant response rating, Corn (corn (Zea mays); 31 g ai/ha) | Plant response rating, Corn (corn (Zea mays); 125 g ai/ha) | Plant response rating, Sedge, Umbrella [3] | Plant response rating, Galium ([4]; 31 g ai/ha) | Plant response rating, Galium ([4]; 125 g ai/ha) | Plant response rating, Ragweed ([5]; 31 g ai/ha) | Plant response rating, Ragweed ([5]; 125 g ai/ha) | Plant response rating, Kochia (kochia (Kochia scoparia) [6]; 31 g ai/ha) | Plant response rating, Kochia (kochia (Kochia scoparia) [6]; 125 g ai/ha) | Plant response rating, Ryegrass, Italian ([7]; 31 g ai/ha) | Plant response rating, Ryegrass, Italian ([7]; 125 g ai/ha) | Plant response rating, Foxtail, Giant ([8]; 31 g ai/ha) | Plant response rating, Foxtail, Giant ([8]; 125 g ai/ha) | Plant response rating, Pigweed ([9]; 31 g ai/ha) | Plant response rating, Pigweed ([9]; 125 g ai/ha) | Plant response rating, Ragweed ([10]; 31 g ai/ha) | also measured
FC(F)(F)CCOc1c(Cl)cccc1Oc1ncc(Cl)cn1 [Compound 43] | 0 | 0 | 30 | 80 | 10 | 10 | 90 | 20 | 60 | 0 | 0 | 0 | 90 | 0 | 10 | 10 | 40 | 40 | 100 | 0 | Plant response rating, Ragweed ([10]; 125 g ai/ha): 0; Plant response rating, Pigweed ([11]; 31 g ai/ha): 50; Plant response rating, Pigweed ([11]; 125 g ai/ha): 90; Plant response rating, Foxtail, Giant ([12]; 31 g ai/ha): 10; Plant response rating, Foxtail, Giant ([12]; 125 g ai/ha): 100; Plant response rating, Wheat ([13]; 31 g ai/ha): 0; Plant response rating, Wheat ([13]; 125 g ai/ha): 0; Plant response rating, Barnyardgrass ([14]; 31 g ai/ha): 0; Plant response rating, Barnyardgrass ([14]; 125 g ai/ha): 30; Plant response rating, Blackgrass ([15]; 31 g ai/ha): 0; Plant response rating, Blackgrass ([15]; 125 g ai/ha): 30; Plant response rating, Ducksalad [16]: 100; Plant response rating, Rice (rice (Oryza sativa)): 50; Plant response rating, Barnyardgrass [17]: 0; Plant response rating, Barnyardgrass ([18]; 31 g ai/ha): 20; Plant response rating, Barnyardgrass ([18]; 125 g ai/ha): 70
FC(F)(F)C(F)(F)CCCOc1c(Br)cccc1Oc1ncc(Cl)cn1 [Compound 49] | 0 | 20 | 0 | 30 | 10 | 10 | 0 | 10 | 30 | 10 | 20 | 0 | 0 | 0 | 0 | 0 | 10 | 0 | 0 | 0 | Plant response rating, Ragweed ([10]; 125 g ai/ha): 0; Plant response rating, Pigweed ([11]; 31 g ai/ha): 10; Plant response rating, Pigweed ([11]; 125 g ai/ha): 60; Plant response rating, Foxtail, Giant ([12]; 31 g ai/ha): 0; Plant response rating, Foxtail, Giant ([12]; 125 g ai/ha): 40; Plant response rating, Wheat ([13]; 31 g ai/ha): 0; Plant response rating, Wheat ([13]; 125 g ai/ha): 0; Plant response rating, Barnyardgrass ([14]; 31 g ai/ha): 0; Plant response rating, Barnyardgrass ([14]; 125 g ai/ha): 0; Plant response rating, Blackgrass ([15]; 31 g ai/ha): 0; Plant response rating, Blackgrass ([15]; 125 g ai/ha): 0; Plant response rating, Ducksalad [16]: 0; Plant response rating, Rice (rice (Oryza sativa)): 0; Plant response rating, Barnyardgrass [17]: 0; Plant response rating, Barnyardgrass ([18]; 31 g ai/ha): 0; Plant response rating, Barnyardgrass ([18]; 125 g ai/ha): 10
